Where a SMILES comes first, the peptide text is derived from it.
Tests used:
[1] = molecular target: T1, HER2 protein on BT-474 cells (Homo sapiens, UniProt P04626); assay: Competitive binding assay with FITC-compound 5; details: 0.1 to 50 µM with 50 µM FITC-compound 5, BT-474 cells
T1 construct: incubated with HER2 expressing BT-474 cells lines along with fixed amount of FITC-compound 5; host or cells: BT-474
Protocol: BT-474 cell lines were coated on 96 well plates and after 24 hrs cells were washed. Varying amounts of compound 18 (0.1 to 50 µM) was incubated with HER2 expressing BT-474 cells lines along with fixed amount of FITC-compound 5 (50 µM). […] Readings were in triplicate. A graph of relative fluorescence with respect to concentration of compound 18 was plotted. As control fluorescence from FITC-compound 5 and cells without any treatment were used.

[2] = system: phosphorylated HER2 in BT-474 cells; assay: Western blot of phosphorylated HER2; format: cell-based; details: 0.5 and 1 µM
Protocol: (§1) BT-474, Calu-3, and SKOV-3 cells were treated with compounds at 1 µM and lapatinib (positive control) at 0.07 µM. Cells without any treatment and cells treated with control compound were employed as negative controls in these studies. Cells were incubated for 36 h, washed and trypsinized. The cell lysate was prepared using cell lysis buffer containing protease inhibitor and phosphatase inhibitor. The protein concentration in each sample was determined using Bradford’s assay. 40 μg of protein from each sample was loaded on Novex® 4–20% tris-glycine gels and western blot analysis was carried out as described in our previous publication. Antibodies for the detection of total HER2 protein (t-HER2) and phosphorylated HER2 protein (p-HER2) were used at 1:3000 dilutions. After addition of the substrate and enhancer solutions from a Super Signal-enhanced chemiluminescence kit (Pierce, Rockford, IL) to the membrane, the images were captured using C-Digit Blot Scanner (LI-COR Biotechnology, Lincoln, NE). A representative Western blot image was used for the final presentation.

[3] = system: phosphorylated HER2 in Calu-3 cells; assay: Western blot of phosphorylated HER2; format: cell-based
Protocol: as §1

[4] = molecular target: T2, HER2:HER3 dimerization in transfected U2OS cells (Homo sapiens, UniProt P04626); assay: Enzyme fragment complementation (PathHunter) assay; format: cell-based; details: in the presence of 0.3 µM NRG1
T2 construct: host or cells: U2OS
T2 sequence (P04626 23-1255): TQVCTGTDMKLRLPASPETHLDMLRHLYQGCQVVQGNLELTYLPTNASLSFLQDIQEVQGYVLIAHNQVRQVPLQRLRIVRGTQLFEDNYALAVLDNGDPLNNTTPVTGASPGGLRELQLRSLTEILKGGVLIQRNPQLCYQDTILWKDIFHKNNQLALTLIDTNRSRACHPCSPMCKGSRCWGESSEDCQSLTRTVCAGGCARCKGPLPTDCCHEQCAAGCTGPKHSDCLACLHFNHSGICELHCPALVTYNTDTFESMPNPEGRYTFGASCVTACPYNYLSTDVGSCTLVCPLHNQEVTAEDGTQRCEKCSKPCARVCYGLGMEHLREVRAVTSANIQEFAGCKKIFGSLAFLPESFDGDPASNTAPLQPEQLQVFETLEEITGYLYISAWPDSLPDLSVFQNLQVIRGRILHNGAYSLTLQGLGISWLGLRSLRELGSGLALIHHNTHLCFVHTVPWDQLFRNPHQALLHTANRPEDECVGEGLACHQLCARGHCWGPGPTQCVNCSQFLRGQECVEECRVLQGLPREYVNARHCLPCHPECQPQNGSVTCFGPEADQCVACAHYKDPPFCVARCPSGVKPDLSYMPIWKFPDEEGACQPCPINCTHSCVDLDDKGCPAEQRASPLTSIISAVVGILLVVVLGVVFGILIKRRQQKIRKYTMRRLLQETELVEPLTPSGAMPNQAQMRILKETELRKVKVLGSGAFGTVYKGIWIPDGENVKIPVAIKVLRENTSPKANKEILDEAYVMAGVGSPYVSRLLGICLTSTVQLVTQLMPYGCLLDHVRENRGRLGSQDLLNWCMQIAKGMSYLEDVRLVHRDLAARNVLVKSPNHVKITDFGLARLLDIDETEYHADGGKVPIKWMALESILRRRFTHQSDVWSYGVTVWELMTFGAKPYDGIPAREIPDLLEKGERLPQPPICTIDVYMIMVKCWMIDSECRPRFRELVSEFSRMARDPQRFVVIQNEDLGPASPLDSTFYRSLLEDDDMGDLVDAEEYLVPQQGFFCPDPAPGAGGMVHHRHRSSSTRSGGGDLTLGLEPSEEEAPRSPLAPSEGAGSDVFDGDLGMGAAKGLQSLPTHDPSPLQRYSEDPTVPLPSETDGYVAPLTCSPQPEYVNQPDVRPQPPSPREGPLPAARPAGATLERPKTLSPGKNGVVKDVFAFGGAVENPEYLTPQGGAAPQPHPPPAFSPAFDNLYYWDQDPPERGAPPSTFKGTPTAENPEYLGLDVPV
Protocol: A Pathhunter assay kit was obtained from DiscoverX, and enzyme fragment complementation assay was carried out. U2OS cells transfected with HER3:HER2 were used for the assay. After cells were attached to the wells, they were incubated with compound 18 and controls at different concentration in the presence of neuregulin-1 (NRG-1) at 0.3 µM concentration. After 24 h of incubation, reagents were added, and luminescence was measured and compared with a control without any compound. A plot of luminescence versus concentration was obtained to measure the dimerization of HER3:HER2 and its inhibition by compound 18.

SKBR-3 cells = assay: TUNEL assay; format: cell-based; details: 5 and 10 µM
Protocol: Ten thousand SKBR-3 cells were added to each well of Lab-Tek® 8-chamber slides and incubated overnight for cell attachment. […] Cells were washed twice with cold PBS. Cell fixation was achieved using 10% buffered formalin followed by permeabilization of membranes using 0.2% Triton X-100 in PBS at room temperature. 100 µL of rTdT reaction mix containing biotinylated nucleotide mix was added. The slide was placed in a humidity chamber and incubated for 60 min at 37°C. With the addition of dilute saline-sodium citrate (SSC) solution (20X provided with the kit diluted to 2X), the reaction was stopped. Three PBS washes were made to ensure the removal of remaining unincorporated biotinylated nucleotides on the slide. Treatment with 0.3% hydrogen peroxide was done to block the endogenous peroxidases in the cells. The slide was incubated for 30 min at room temperature with dilute streptavidin HRP solution (1:500 in PBS). Diaminobenzidine (DAB) was added to stain the slide. After drying, DAPI was used to counterstain the nuclei, and images were obtained using a Nikon Eclipse TS100. The number of cells that had undergone apoptosis was counted and quantified.

BT-474 breast tumors = assay: Xenograft model of breast cancer; format: in vivo, athymic nude mice; details: BT-474 xenograft, 19 days; 18 and 9 4 mg/kg twice a week intratumor; lapatinib 10 mg/kg once a week i.p.
Protocol: All animals were handled according to the approved protocol from IACUC at the University of Louisiana at Monroe. Athymic nude mice (Foxn1nu/Foxn1+, female, 4–5 weeks) were purchased from Harlan Laboratories (Indianapolis, IN) and maintained in the ULM School of Pharmacy vivarium. After acclimatization of animals to the local environment, estrogen (17β-estradiol) pellets (0.72 mg, 90-day release) were implanted subcutaneously in the mice, under anesthesia. Tumors were induced in mice as described previously. Orthotopic injection of about three-million BT-474 cells suspended in the serum-free RPMI-1640 medium was done at the second left mammary fat pad. Mice were observed every day for tumor formation, and the tumor diameter was measured with calipers, and the tumor volume was calculated. When a tumor diameter of 3 mm was achieved, mice were randomly assigned to four groups of six. These groups contain negative control (vehicle control), positive control (lapatinib), and two treatment groups (compound 9 and 18). The mice were treated for 19 days. Compound 18 was administered near the base of the tumor at a dose of 4 mg/kg twice a week. Control groups received intratumor saline injections twice a week, and lapatinib was administered at 10 mg/kg once a week by intraperitoneal injection. The marker to end the experiments was based on tumor doubling time rather than tumor volume. Since tumor doubling time was 4 times in 19 days, experiments were stopped on the 19th day. Tumor-bearing mice were sacrificed, and three tumors per group were harvested and maintained at –80°C and the remaining three tumors were fixed in paraffin blocks. Microsections (5 µm) of paraffin fixed tumors were stained with hemotoxylin and eosin (H&E) and observed for necrosis by a pathologist. All data are presented as the mean ± SE. Statistical differences were evaluated by Mann-Whitney U test as well as one-way ANOVA analysis of data from different groups, and the criterion for statistical significance was p < 0.05.

[5] = system: HER2 phosphorylation in tumor samples; assay: Western blot of xenograft tumor samples; format: in vivo, athymic nude mice; details: treated tumors compared to control
Protocol: (§2) Western blot and PLA assay were carried out on tumor sections as described before. Immunoblot analysis was performed to evaluate the levels of total HER2 and phosphorylated HER2. Tumor sections were deparaffinized using xylene and rehydrated with decreasing concentrations of ethanol. Antigen retrieval on the microsections of the breast tumors was done in a steaming sodium citrate buffer (10 mM, 0.05% Tween-20, pH 6.0) for 5 min. The tumor sections were then used to analyze inhibition of HER2:HER3 dimerization using PLA.

[6] = molecular target: T3, HER2:HER3 heterodimerization in tumor sections (Homo sapiens, UniProt P04626); assay: PLA on xenograft tumor sections; format: in vivo, athymic nude mice
T3 construct: from tissue; host or cells: BT-474 xenograft tumours grown in athymic nude mice
T3 sequence (P04626 23-1255, one chain of several): as the sequence (P04626 23-1255) above
Protocol: as §2

Calu-3 cells = details: read-out: IC50 Calu-3 (+); HER2-overexpressing lung cancer cells, 72 h
Protocol: Cellular assays were performed using BT-474, SKBR-3, Calu-3, MCF-7, and MCF-10A cells (ATCC). Antiproliferative activity was measured by CellTiter-Glo®, [49] a luminescence-based cell viability assay. In a 96-well plate, 1 × 10^4 cells/well were seeded and incubated overnight at 37°C and 5% CO2. Stock solutions of peptidomimetics were prepared by dissolving 1.5 mg/mL of compounds in DMSO. Stock solution of the compounds were diluted using the serum-free medium to prepare solutions of different concentrations of compounds. Compounds in the medium were added to the wells in triplicate and incubated for 72 h. As controls, cells treated with 1% sodium dodecyl sulfate and 1% dimethyl sulfoxide were used. At the end of the experiment, CellTiter-Glo® reagent was added, and luminescence was measured by a plate reader. A dose response curve was generated using luminescence vs concentration of compounds and IC50 values were obtained using Prism® (GraphPad Software, La Jolla, CA). Experiments were repeated at least three times to obtain standard deviation values.

[7] = system: NCI-H1975 cells (EGFR L858R/T790M)
Protocol: Antiproliferative activity was measured by CellTiter-Glo®, [49] a luminescence-based cell viability assay. In a 96-well plate, 1 × 10^4 cells/well were seeded and incubated overnight at 37°C and 5% CO2. Stock solutions of peptidomimetics were prepared by dissolving 1.5 mg/mL of compounds in DMSO. Stock solution of the compounds were diluted using the serum-free medium to prepare solutions of different concentrations of compounds. […] As controls, cells treated with 1% sodium dodecyl sulfate and 1% dimethyl sulfoxide were used. At the end of the experiment, CellTiter-Glo® reagent was added, and luminescence was measured by a plate reader. A dose response curve was generated using luminescence vs concentration of compounds and IC50 values were obtained using Prism® (GraphPad Software, La Jolla, CA). Experiments were repeated at least three times to obtain standard deviation values.

T1 sequence (P04626 23-1255): as above

`N=C(N)NCCC[C@@H]1NC(=O)[C@H]2CCCN2C(=O)[C@@H]2CCCN2C(=O)[C@H](CCCNC(=N)N)NC(=O)C[C@H](c2cccc3ccccc23)NC(=O)[C@H](Cc2ccccc2)NC(=O)[C@H](CC(=O)O)NC(=O)[C@H](CC(=O)O)NC(=O)[C@H](Cc2ccccc2)NC(=O)C[C@H](c2cccc3ccccc23)NC1=O` [compound 18, Cyclo(1,10)P^1p^2R^3(R-Anapa)^4F^5D^6D^7F^8(R-Anapa)^9R^10] (HELM PEPTIDE1{P.[dP].R.[O=C(C[C@@H](N[*:1])c1cccc2ccccc12)[*:2]].F.D.D.F.[O=C(C[C@@H](N[*:1])c1cccc2ccccc12)[*:2]].R}$PEPTIDE1,PEPTIDE1,1:R1-10:R2$$$V2.0) was tested, and the “Competition with FITC-compound 5 (cell fluorescence)” value [1] was “decrease in the fluorescence intensity of cells”, the “Phosphorylation of HER2 (Western blot)” value [2] was “decreases the phosphorylation of HER2 in a concentration-dependent manner” and the “Phosphorylation of HER2 (Western blot)” value [3] was “decreases the phosphorylation of HER2 in a concentration-dependent manner”. The “Inhibition of HER2:HER3 dimerization (PathHunter)” value [4] was “dimerization of HER2:HER3 is inhibited in a concentration-dependent manner”, the “Apoptosis (TUNEL staining)” value (SKBR-3 cells) was “positive staining for apoptosis” and the “Tumor growth versus vehicle” value (BT-474 breast tumors) was “delay in tumor growth and tumor size”. For the same compound, the “HER2 phosphorylation in tumor samples (Western blot)” value [5] was “decrease in HER2 phosphorylation”, the “HER2:HER3 heterodimerization in tumor sections (PLA)” value [6] was “diminished red fluorescence signals” and the IC50 (Calu-3 cells) was 18 ± 13 nM. The “Synergistic effect with erlotinib (isobologram)” value ([7]; NCI-H1975, compound 18 plus erlotinib) was “synergistic effect” and the IC50 ([7]; read-out: IC50 in NCI-H1975, EGFR L858R/T790M lung cancer cell line) was 4850 nM.
